Measured values as given in patent EP4556003A1, “ANTI-OBESITY AND ANTI-DIABETIC ACTIVITY OF BROMINATED DITERPENES FROM RED ALGAE OF THE GENUS LAURENCIA AND APPLICATIONS THEREOF” (priority 2023, dated 2025).

Tests used:
3T3-L1 adipocytes = assay: Oil red o staining of intracellular lipid accumulation; format: cell-based, Mouse
Method: Mouse 3T3-L1 preadipocytes were maintained in proliferation medium containing DMEM supplemented with 10% (v/v) heat inactivated NBCS and 1% (v/v) penicillin-streptomycin at 37 °C with 5% CO2, humidified atmosphere. Cells were seeded in T-75 flasks at a density of 25×10^4 cells/flask. Cultures never became completely confluent according to the manufacturer's instructions. They were passaged using trypsin-EDTA solution once they reached 70-80% confluency. For differentiation, 3T3-L1 cells were seeded and after 24 h (day 1), cell differentiation was induced by changing the medium to high glucose DMEM containing 10% (v/v) heat inactivated FBS, 1% penicillin-streptomycin, 10 µg/mL insulin, 0.25 µM Dexamethasone (GAP), 0.5 mM IBMX (=differentiation medium I). On day 3, the medium was changed to high glucose DMEM containing 10% FBS, 1% penicillin- streptomycin, and 10 µg/mL insulin (=differentiation medium II). Thereafter, medium was changed every other day switching between differentiation medium I and differentiation medium II until day 12 or 23, when adipocytes were harvested. Control group preadipocytes were seeded at a higher density and harvested after two days. Test compounds were administered either at the initiation of differentiation, or after 15 days of differentiation and with every medium change. To determine the effect on preadipocyte differentiation, cells were seeded and after 24 h they were treated with neorogioldiol. Neorogioldiol was maintained in the culture medium throughout cell differentiation period. To determine the effect of neorogioldiol on mature adipocytes, cells were seeded and induced to differentiate for 14 days, then on day 15 neorogioldiol was added to the differentiation medium for 24 h before cells were harvested. Each compound used was diluted in a 90% carbowax™ 400, 10% (v/v) absolute ethanol solution serving as a control solvent. The final concentration in culture was 0.09% (v/v) carbowax and 0.01% (v/v) ethanol. […]
Oil red o staining was applied to measure lipid accumulation intracellularly. Briefly, after 12 or 23 days of differentiation, the cell culture medium was removed and the 3T3-L1 adipocytes were fixed in 3.7% formaldehyde for 60 min at room temperature. Next, a solution of 0.21% oil red o was filtered using a 0.45 µm filter followed by incubation of the fixed cells for 45 min at room temperature. Excess dye was removed and cells were washed twice with PBS. Fresh PBS was added and the lipid droplets within the differentiated 3T3-L1 cells were visualized and photographed by microscopy. For quantitative analysis, oil red o staining was eluted with 100% isopropanol and the absorbance was measured at 510 nm using the Infinite® 200 PRO microplate plate reader (Tecan, Zurich, Switzerland).

3T3-L1 cells = assay: Quantitative PCR of relative mRNA expression in cell culture samples; format: cell-based, Mouse; conditions: for Gapdh expression / Hk2 expression / Pfkfb3 expression: 62.5 µM for 24 h
Method: Mouse 3T3-L1 preadipocytes were maintained in proliferation medium containing DMEM supplemented with 10% (v/v) heat inactivated NBCS and 1% (v/v) penicillin-streptomycin at 37 °C with 5% CO2, humidified atmosphere. Cells were seeded in T-75 flasks at a density of 25×10^4 cells/flask. Cultures never became completely confluent according to the manufacturer's instructions. They were passaged using trypsin-EDTA solution once they reached 70-80% confluency. For differentiation, 3T3-L1 cells were seeded and after 24 h (day 1), cell differentiation was induced by changing the medium to high glucose DMEM containing 10% (v/v) heat inactivated FBS, 1% penicillin-streptomycin, 10 µg/mL insulin, 0.25 µM Dexamethasone (GAP), 0.5 mM IBMX (=differentiation medium I). On day 3, the medium was changed to high glucose DMEM containing 10% FBS, 1% penicillin- streptomycin, and 10 µg/mL insulin (=differentiation medium II). Thereafter, medium was changed every other day switching between differentiation medium I and differentiation medium II until day 12 or 23, when adipocytes were harvested. Control group preadipocytes were seeded at a higher density and harvested after two days. Test compounds were administered either at the initiation of differentiation, or after 15 days of differentiation and with every medium change. To determine the effect on preadipocyte differentiation, cells were seeded and after 24 h they were treated with neorogioldiol. Neorogioldiol was maintained in the culture medium throughout cell differentiation period. To determine the effect of neorogioldiol on mature adipocytes, cells were seeded and induced to differentiate for 14 days, then on day 15 neorogioldiol was added to the differentiation medium for 24 h before cells were harvested. Each compound used was diluted in a 90% carbowax™ 400, 10% (v/v) absolute ethanol solution serving as a control solvent. The final concentration in culture was 0.09% (v/v) carbowax and 0.01% (v/v) ethanol. Compounds were used at the following concentrations: neorogioldiol (1) 62.5µM and neorogioltriol (2) 25µM.
Adipocytes and preadipocytes were harvested using the TRI Reagent®. RNA isolation was carried out according to the manufacturer's instructions. The purified RNA was quantified using the Nanodrop micro-volume spectrophotometer and 500 ng of each sample were used as a template for reverse transcription. cDNA synthesis was performed using the PrimeScriptTM RT reagent Kit (TaKaRa, RR037A) according to manufacturer's instructions. The cDNA produced by the above described procedure was diluted and used as a template for two-step quantitative PCR in a StepOnePlus™ Real-Time PCR System (Applied Biosystems™, 4376600) for a maximum of 40 cycles, as follows: start step 95 °C for 3 min, repeat steps: 95 °C for 15 s and 60 °C for 30 s. Amplification was performed using KAPA SYBR® FAST Universal qPCR kit (Kapa Biosystems, KK4618) according to manufacturer's instructions. Relative quantitative analysis was accomplished calculating fold-changes of gene expression as 2-(ΔΔCt), where ΔCt is (Ct (gene of interest) - Ct (housekeeping gene)). Ppib was used as internal control gene in 3T3L1 cells and in the fat fraction of mice abdominal fat, Rps9 was used as internal control gene in the stromal vascular fraction of mice abdominal fat and Actb was used as internal control gene in liver samples. Table 1. List of primers used for quantitative real-time PCR analysis.

[1] = differentiation in presence of serial concentrations 62.5, 31.25, 15.625, 7.81 and 3.9 µM, dose-dependent
[2] = mature adipocytes: differentiated 15 days, then 62.5 µM for 8 more days
[3] = cells differentiated in the presence of compound, 12 days, 1 at 62.5 µM, 2 at 25 µM

## neorogioldiol
3T3-L1 adipocytes; [1]
  lipid accumulation: reduced lipid accumulation
3T3-L1 adipocytes; differentiation induced in the presence of compound, after 12 days, 1 at 62.5 µM, 2 at 25 µM
  lipid accumulation: significantly reduced lipid accumulation
3T3-L1 adipocytes; [2]
  lipid accumulation: decreased lipid accumulation
3T3-L1 cells; adipocytes
  Gapdh expression: decreasing
  Hk2 expression: decreasing
  Pfkfb3 expression: decreasing
3T3-L1 cells; [3]
  Adipoq expression levels: restricted the increase
  Dlkl mRNA expression: diminished
  Lep expression levels: restricted the increase
  Slc2a4 expression levels: restricted the increase
3T3-L1 cells; [1]
  Lep levels: restricted the increase
  Slc2a4 levels: restricted the increase
3T3-L1 cells; [2]
  Adipoq expression: decreased the expression
  Fabp4 expression: decreased the expression
  Pparg expression: decreased the expression
3T3-L1 cells; preadipocytes
  Gapdh expression: downregulated
  Hk2 expression: downregulated
  Pfkfb3 expression: downregulated
